# Experimental data reported in paper PMC8129133, “Polymer-free corticosteroid dimer implants for controlled and sustained drug delivery” (Nature Communications, 2021).
# “And” between values parts separate entries of the source, which are not always exact repeats. Equal values may be shown once. Read-outs that look alike come from different tables or passages of the source.
# Columns and labels:
# [1] = test system: LPS-induced stimulation of PGE2 production by primary human monocytes; test: LPS induced monocyte activation (PGE2 ELISA); assay type: cell-based; conditions: for % Activity: Fig 4h, PGE2 production, one line per donor; for IC50: primary human monocytes, N=3, read-out: IC50, inhibition of LPS-induced PGE2 production
# Description: Monocytes were isolated from whole peripheral blood donated by healthy volunteers. Protocols were approved by Health Sciences Research Ethics Board (REB) at the University of Toronto (ethics approval #22203). All experiments were repeated with three distinct donors who provided informed consent. Briefly, whole blood was layered on Histopaque-1077 (Sigma) and the mononuclear cell fraction was isolated by density centrifugation. Platelets were removed through a series of washes. Monocytes were seeded at a density of 200,000/well in a 96-well plate (Becton Dickinson). Medium was changed 2 h post-seeding to remove non-adherent cells. […] Dex derived from degraded Dex-TEG-Dex was prepared by dissolving Dex-TEG-Dex in ethanol at 10 mg/ml, adding to culture medium to achieve a concentration of 10 µg/ml, and subsequent incubation of the solution at 37 °C and 5% CO2 until the dimer had fully degraded, as confirmed by HPLC. […] Samples were incubated for 15 min at 37 °C and 5% CO2, followed by addition of a 2 µl lipopolysaccharide stock solution (LPS, Sigma) to obtain a final concentration of 50 µg/ml. Following overnight exposure to LPS, supernatant was collected and analyzed for PGE2 using a PGE2 ELISA kit according to the manufacturer’s instructions (R&D Systems).
# [2] = In vitro release; assay type: physicochemical; conditions: for Cumulative Dex Release (%), avg / Cumulative Dex Release (ng), avg / Cumulative Dex Release / Cumulative SM Release (%), avg / Cumulative SM Release (ng), avg: Fig 6c; for Cumulative Dex Release: single replicates; for Cumulative TA Release: samples and avg; for Cumulative TA Release (%): FBS; for Cumulative Dex Release (%), avg / Cumulative Dex Release (ng), avg / Cumulative TA Release (%) / Cumulative SM Release (%), avg / Cumulative SM Release (ng), avg: avg
# Procedure: Pellets for release studies. Crystalline drug dimers were weighed on a stainless steel coupon. In the case of blends with a second drug, the dimer and drug were mixed at the desired mass ratio with mortar and pestle prior to weighing. Samples were transferred to a heat press (Carver Laboratory Press). A PTFE mold containing an array of 1 mm diameter holes of 1 mm depth was placed on top of the melt, and pressure was applied for 2 min. Molded pellets were cooled to room temperature and punched out of the mold, yielding a pellet of 1 mm height × 1 mm diameter.
# Release studies were carried out using different media, including PBS (pH 7.4, Gibco), 100% FBS (Sigma, F1051), 1% FBS in PBS pH 7.4, and 3.6% BSA (Sigma, A7906) in PBS (pH 7.4, Gibco). […] Samples were incubated in release medium at 37 °C under constant agitation on an orbital shaker at 115 rpm (VWR). At designated timepoints, sampling was performed by complete removal of medium and replenishment with fresh buffer. Sampling timepoints included 24 h and then every 3–4 days thereafter. For PBS release conditions, samples were analyzed directly. For samples with protein (100% FBS, 1% FBS, 3.6% BSA), protein was precipitated by addition of acetonitrile. Samples were vortexed and centrifuged to separate extracted drug from precipitated protein. The supernatant was then analyzed for drug concentration by HPLC.
compound,measurement,setting,value
C[C@@H]1C[C@H]2[C@@H]3CCC4=CC(=O)C=C[C@]4(C)[C@@]3(F)[C@@H](O)C[C@]2(C)[C@@]1(O)C(=O)CO [Dex from Degraded Dex-TEG-Dex],% Activity,"[1]; 0.05 nM, 50 pM",133.56% and 95.05% and 109.87%
same,% Activity,"[1]; 0.1 nM, 0.0001 µM",71.31% and 70.97% and 72.68%
same,% Activity,"[1]; 0.5 nM, 0.0005 µM",92.91% and 70.93% and 94.26%
same,% Activity,"[1]; 1 nM, 0.001 µM",74.23% and 63.23% and 72.65%
same,% Activity,"[1]; 5 nM, 0.005 µM",59.75% and 37.69% and 27.50%
same,% Activity,"[1]; 10 nM, 0.01 µM",60.49% and 37.84% and 31.81%
same,% Activity,"[1]; 100 nM, 0.1 µM",63.88% and 16.49% and 17.83%
same,IC50,[1]; listed as Dex from Dex-TEG-Dex,0.93 ± 0.49 nM
"C[C@@H]1C[C@H]2[C@@H]3CCC4=CC(=O)C=C[C@]4(C)[C@@]3(F)[C@@H](O)C[C@]2(C)[C@@]1(O)C(=O)CO [Dex, dexamethasone, reference compound]",% Activity,"[1]; 0.05 nM, 50 pM",141.66% and 109.12% and 86.18%
same,% Activity,"[1]; 0.1 nM, 0.0001 µM",118.30% and 90.43% and 82.49%
same,% Activity,"[1]; 0.5 nM, 0.0005 µM",96.26% and 65.64% and 103.04%
same,% Activity,"[1]; 1 nM, 0.001 µM",66.03% and 45.78% and 57.92%
same,% Activity,"[1]; 5 nM, 0.005 µM",74.59% and 37.73% and 56.77%
same,% Activity,"[1]; 10 nM, 0.01 µM",69.04% and 28.95% and 33.87%
same,% Activity,"[1]; 100 nM, 0.1 µM",42.88% and 13.38% and 14.89%
same,IC50,[1]; Monocyte,1.52 ± 1.24 nM
same,"Cumulative Dex Release (%), avg",[2]; Day 1,0.0437%
same,"Cumulative Dex Release (ng), avg",[2]; Day 1,365.83 ng
same,Cumulative Dex Release,[2]; Day 1,489.28 ng and 390.83 ng and 217.38 ng
same,"Cumulative Dex Release (%), avg",[2]; Day 3,0.15%
same,"Cumulative Dex Release (ng), avg",[2]; Day 3,1234.13 ng
same,Cumulative Dex Release,[2]; Day 3,1469.66 ng and 1518.28 ng and 714.45 ng
same,"Cumulative Dex Release (%), avg",[2]; Day 8,0.45%
same,"Cumulative Dex Release (ng), avg",[2]; Day 8,3751.80 ng
same,Cumulative Dex Release,[2]; Day 8,4281.72 ng and 3939.60 ng and 3034.10 ng
same,"Cumulative Dex Release (%), avg",[2]; Day 10,0.56%
same,"Cumulative Dex Release (ng), avg",[2]; Day 10,4651.15 ng
same,Cumulative Dex Release,[2]; Day 10,5032.13 ng and 5126.71 ng and 3794.60 ng
same,"Cumulative Dex Release (%), avg",[2]; Day 14,0.78%
same,"Cumulative Dex Release (ng), avg",[2]; Day 14,6525.91 ng
same,Cumulative Dex Release,[2]; Day 14,7249.57 ng and 6858.64 ng and 5469.52 ng
CC1(C)OC2CC3C4CCC5=CC(=O)C=CC5(C)C4(F)C(O)CC3(C)C2(C(=O)COC(=O)OCCOCCOCCOC(=O)OCC(=O)C23OC(C)(C)OC2CC2C4CCC5=CC(=O)C=CC5(C)C4(F)C(O)CC23C)O1 (stereo not drawn) [TA-TEG-TA],Cumulative TA Release,"[2]; Fig 5b pellet 1x1 mm, 4 ml FBS, Day 3",5664.02 ng and 5830.61 ng and 10508.43 ng and 8884.74 ng and 7887.68 ng
same,Cumulative TA Release,"[2]; Fig 5b pellet 1x1 mm, 4 ml FBS, Day 3, mean",7755.10 ng
same,Cumulative TA Release,"[2]; Fig 5b pellet 1x1 mm, 4 ml FBS, Day 10",24788.43 ng and 27087.36 ng and 33297.79 ng and 37315.92 ng and 18944.25 ng
same,Cumulative TA Release,"[2]; Fig 5b pellet 1x1 mm, 4 ml FBS, Day 10, mean",28286.75 ng
same,Cumulative TA Release,"[2]; Fig 5b pellet 1x1 mm, 4 ml FBS, Day 14",34850.40 ng and 35016.99 ng and 40361.16 ng and 49853.28 ng and 32172.64 ng
same,Cumulative TA Release,"[2]; Fig 5b pellet 1x1 mm, 4 ml FBS, Day 14, mean",38450.90 ng
same,Cumulative TA Release (%),"[2]; Fig 5b pellet, Day 1",0.13%
same,Cumulative TA Release (%),"[2]; Fig 5b pellet, Day 3",0.96%
same,Cumulative TA Release (%),"[2]; Fig 5b pellet, Day 7",2.37%
same,Cumulative TA Release (%),"[2]; Fig 5b pellet, Day 10",3.49%
same,Cumulative TA Release (%),"[2]; Fig 5b pellet, Day 14",4.75%
same,Cumulative TA Release,"[2]; Fig 5f microparticles, 10 ml FBS, 1st time point (day not given)",2977.29 ng and 2848.37 ng and 4097.61 ng
same,Cumulative TA Release,"[2]; Fig 5f microparticles, 10 ml FBS, 1st time point (day not given), mean",3307.76 ng
same,Cumulative TA Release,"[2]; Fig 5f microparticles, 10 ml FBS, 2nd time point (day not given)",14594.84 ng and 16537.75 ng and 15417.43 ng
same,Cumulative TA Release,"[2]; Fig 5f microparticles, 10 ml FBS, 2nd time point (day not given), mean",15516.68 ng
same,Cumulative TA Release,"[2]; Fig 5f microparticles, 10 ml FBS, 3rd time point (day not given)",49825.05 ng and 51101.90 ng and 51098.83 ng
same,Cumulative TA Release,"[2]; Fig 5f microparticles, 10 ml FBS, 3rd time point (day not given), mean",50675.26 ng
same,Cumulative TA Release,"[2]; Fig 5f microparticles, 10 ml FBS, 4th time point (day not given)",60024.55 ng and 61820.14 ng and 64573.36 ng
same,Cumulative TA Release,"[2]; Fig 5f microparticles, 10 ml FBS, 4th time point (day not given), mean",62139.35 ng
same,Cumulative TA Release,"[2]; Fig 5f microparticles, 10 ml FBS, 5th time point (day not given)",83317.99 ng and 79582.57 ng and 89772.87 ng
same,Cumulative TA Release,"[2]; Fig 5f microparticles, 10 ml FBS, 5th time point (day not given), mean",84224.47 ng
same,Cumulative TA Release (%),"[2]; Fig 5f microparticles, 1st time point",2.67%
same,Cumulative TA Release (%),"[2]; Fig 5f microparticles, 2nd time point",12.50%
same,Cumulative TA Release (%),"[2]; Fig 5f microparticles, 3rd time point",40.83%
same,Cumulative TA Release (%),"[2]; Fig 5f microparticles, 4th time point",50.07%
same,Cumulative TA Release (%),"[2]; Fig 5f microparticles, 5th time point",67.87%
"CCN(CC)CCNC(=O)c1c(C)[nH]c(/C=C2\C(=O)Nc3ccc(F)cc32)c1C [sunitinib malate, reference compound]","Cumulative SM Release (%), avg",[2]; Day 1,3.88%
same,"Cumulative SM Release (ng), avg",[2]; Day 1,5838.79 ng
same,"Cumulative SM Release (%), avg",[2]; Day 3,5.66%
same,"Cumulative SM Release (ng), avg",[2]; Day 3,8518.35 ng
same,"Cumulative SM Release (%), avg",[2]; Day 8,6.76%
same,"Cumulative SM Release (ng), avg",[2]; Day 8,10163.91 ng
same,"Cumulative SM Release (%), avg",[2]; Day 10,7.42%
same,"Cumulative SM Release (%), avg",[2]; Day 14,8.14%
same,"Cumulative SM Release (ng), avg",[2]; Day 14,12242.96 ng
